# Data as given in patent publication US20040009194A1, “Methods, and compositions for a therapeutic antigen presenting cell vaccine for treatment of immunodeficiency virus” (priority 2002, published 2004).
# Columns and labels:
# autologous PBL = test: Proliferation of patient T cells stimulated with inactivated-virus-pulsed autologous DC ([methyl-3H]thymidine incorporation); format: cell-based, human; conditions: indinavir 10 nM (nonantiviral concentration); P<0.001
# Excerpt: To mimic the antigen capture by DC in peripheral tissues, immature DC (i.e., competent in antigen capture) generated by culturing patient blood monocytes with GM-CSF and IL-4 for 5 days were pulsed with autologous viral isolates inactivated by 2,2′ dithiodipyridine or aldrithiol-2 (AT-2), which preserves the intact native conformation and fusogenic activity of HIV Env protein. As will be appreciated by those skilled in the art, there are a number of mechanisms suitable to inactivate a virus, and any of these methods can be used so long as the method preserves the intact native conformation and fusogenic activity of HIV Env protein. To model the presentation of antigens in lymphoid tissue, virus-pulsed DC were matured in the presence of TNF-α and IFN-α for an additional 3 days to maximize their T-cell-stimulatory activity. Matured virus-pulsed DC was then used to stimulate autologous PBL at a stimulator/responder ratio of 1:3 in the absence or presence of PI at a nonantiviral concentration (10 nM indinavir). By day 7 of coculture, PBL were restimulated with the same virus-pulsed DC for an additional 7 days. At day 14, proliferation was measured by incubating PBL with virus-pulsed DC at stimulator/responder ratios of 1:3 to 1:100. […] HIV-1 gag-specific CTL activity following stimulation with virus-pulsed autologous DC.
# [1] = tested on: autologous B-LCL infected by recombinant vaccinia virus containing a gag gene of HIV-1; format: cell-based, human
compound,measurement,setting,value
CC(C)(C)NC(=O)[C@@H]1CN(Cc2cccnc2)CCN1C[C@@H](O)C[C@@H](Cc1ccccc1)C(=O)N[C@H]1c2ccccc2C[C@H]1O [indinavir],effect of PI on DC-mediated T-cell proliferation,autologous PBL,significantly enhanced
same,effect of indinavir on gag-specific CTL activity,[1],significantly enhanced
